Source: patent publication US9701670B2, “Pyrazolyl-ureas as kinase inhibitors” (RESPIVERT LIMITED, priority 2013, dated 2017)

Tests used:
[1] = Pharmacokinetics, plasma and total colon tissue distribution in rats; type: in vivo, male Wistar rats; details: Rat
Procedure: A study was conducted by Sai Life Sciences (Hinjewadi, Pune, India) to investigate the pharmacokinetics, as well as plasma and total colon tissue distribution of the compound of Example 77 in male Wistar rats following a single intravenous or oral administration.
30 male Wistar rats were divided into two groups: Group I (p.o.: 5 mg/kg; 27 rats) and Group II (i.v.: 0.25 mg/kg; 3 rats). Animals in Group I were administered orally with an aqueous suspension formulation (having 2% HPMC and 0.5% Tween 80) of the compound of Example 77, at a dose of 5 mg/kg. Animals in Group II were administered intravenously with a solution formulation (in 5% v/v DMSO, 7.5% w/v Solutol HS 15 and 87.5% saline (0.9% w/v NaCl)) of the compound of Example 77 at a dose of 0.25 mg/kg. From each rat, blood samples (approximately 120 μL) were collected from retro orbital plexus such that samples were obtained at pre-dose, 0.05, 0.13, 0.25, 0.5, 1, 2, 4, 8, and 24 hr (i.v.) and pre-dose, 0.5, 1, 2, 4, 6, 8, 12 and 24 hr (p.o.). Immediately after collection, plasma was harvested from blood by centrifugation and stored at −70° C. until analysis. Following collection of blood sample, the animals (Group I) were humanely euthanized by carbon dioxide asphyxiation. The total colon was isolated, flushed with cold phosphate buffer saline (pH 7.4) to remove contents and weighed. The total colon tissues homogenized with ice-cold phosphate buffered saline, pH 7.4. Buffer volume to be used for homogenization was twice the weight of tissue. All the samples were stored below −70° C. until bioanalysis. Total colon tissue homogenate volume was three times. Plasma and total colon tissue samples were quantified by LC-MS/MS method (LLOQ in plasma and total colon tissue=0.5 ng/mL)

[2] = Pharmacokinetics and total colon tissue distribution in mice; type: in vivo, male C57BL/6 mice; details: male, Mouse, 5 mg/kg p.o.
Procedure: Studies were conducted by Sai Life Sciences (Hinjewadi, Pune, India) to investigate the pharmacokinetics and total colon tissue distribution of the compound of Example 77 in male C57BL/6 mice following a single oral administration.
A group of twenty one male mice were dosed with a suspension formulation (in peanut oil) of the compound of Example 77, at a dose of 5 mg/kg. Blood samples (approximately 60 μL) were collected from retro orbital plexus such that the samples were obtained at 1, 2, 4, 6, 8, 12 and 24 hr. The blood samples were collected from a set of three mice at each time point in labelled micro centrifuge tube containing K2EDTA as anticoagulant. Plasma samples were separated by centrifugation at 4000 rpm for 10 min of whole blood and stored below −70° C. until bioanalysis. After collection of blood sample, animals were humanely euthanized by carbon dioxide asphyxiation to collect total colon tissues. The colons were flushed with cold phosphate buffer saline (pH 7.4) to remove contents. The total colon tissues were homogenized with cold phosphate buffer saline (pH 7.4) of twice the weight of colon tissue and stored below −70° C. Total volume was three times the total colon tissue weights. All samples were processed for analysis by protein precipitation using acetonitrile and analyzed with developed LC-MS/MS method (LLOQ: 2.02 ng/mL in plasma and 1.01 ng/mL in colon tissue). Pharmacokinetic parameters were calculated using the non-compartmental analysis tool of Phoenix WinNonlin® software (version 6.3).

[3] = male, Wistar, plasma, intravenous 0.25 mg/kg
[4] = male, Wistar, po, 5 mg/kg p.o., Plasma
[5] = male, Wistar, total colon tissue, po, 5 mg/kg p.o., Total colon
[6] = C57BL/6, total colon tissue, po, Total colon

For `C#Cc1cc(Nc2nccc(Oc3ccc(NC(=O)Nc4cc(C(C)(C)C)nn4-c4ccc(OC)cc4)c4ccccc34)n2)cc(C(=O)NCCN2CCOCC2)c1` [Example 77, 3-((4-((4-(3-(3-(tert-Butyl)-1-(4-methoxyphenyl)-1H-pyrazol-5-yl)ureido)-naphthalen-1-yl)oxy)pyrimidin-2-yl)amino)-5-ethynyl-N-(2-morpholinoethyl)benzamide], the Fpo ([1]; 5 mg/kg p.o., Plasma) was 0.1%, the AUC(0-inf) [1, 3] was 1190 ng·h/mL and the AUC(0-t) [1, 3] was 1180 ng·h/mL. For the same molecule, the C0 [1, 3] was 4030 ng/mL, the Vd [1, 3] was 0.1 L/kg and the clearance [1, 3] was 3.5 mL/min/kg. The half-life [1, 3] was 48 min, the AUC(0-inf) [1, 4] was 17.5 ng·h/mL and the AUC(0-t) [1, 4] was 17.5 ng·h/mL. It also gave a Cmax [1, 4] of 2.5 ng/mL, a Tmax [1, 4] of 6 h and an AUC(0-inf) [1, 5] of 20700 ng·h/mL. It also gave an AUC(0-t) [1, 5] of 20500 ng·h/mL, a Cmax [1, 5] of 2500 ng/mL and a Tmax [1, 5] of 4 h. The AUC(0-inf) ([2]; C57BL/6, po, Plasma) was 29 ng·h/mL, the AUC(0-t) ([2]; C57BL/6, po, Plasma) was 22 ng·h/mL and the Cmax ([2]; C57BL/6, po, Plasma) was 3.5 ng/mL. For the same molecule, the Tmax ([2]; C57BL/6, po, Plasma) was 1 h, the AUC(0-inf) [2, 6] was 9280 ng·h/mL and the AUC(0-t) [2, 6] was 7480 ng·h/mL. It also gave a Cmax [2, 6] of 1070 ng/mL and a Tmax [2, 6] of 4 h.
